Experimental data taken from article PMC5218480 (PLoS ONE, 2017).

Tested on: MV-4-11 cells
Assay: Gene expression microarray analysis (Affymetrix PrimeView) and GSEA
Type: cell-based, human
Design: RFU PODN (11730768_x_at) / Fold change /veh PODN (11730768_x_at) / RFU LINC00158 (11744669_a_at) / Fold change /veh LINC00158 (11744669_a_at) / RFU DUSP10 (11751237_a_at) / Fold change /veh DUSP10 (11751237_a_at) / RFU ID3 (11757404_x_at) / Fold change /veh ID3 (11757404_x_at) / RFU PLEKHG5 (11737974_s_at) / Fold change /veh PLEKHG5 (11737974_s_at) / RFU LRRC4B (11730491_at) / Fold change /veh LRRC4B (11730491_at) / RFU GIMAP4 (11747438_a_at) / Fold change /veh GIMAP4 (11747438_a_at) / RFU KRT8 (11758183_x_at) / Fold change /veh KRT8 (11758183_x_at) / RFU CNN1 (11734310_a_at) / Fold change /veh CNN1 (11734310_a_at) / RFU VPS37D (11726825_at) / Fold change /veh VPS37D (11726825_at) / RFU C10orf10 (11716522_x_at) / Fold change /veh C10orf10 (11716522_x_at) / RFU KIR2DL2 /// KIR2DL4 /// KIR2DL5A /// KIR2DL5B /// KIR2DS1 /// KIR2DS2 /// KIR2DS3 /// KIR2DS4 /// KIR3DL3 /// KIR3DL3 /// KIR3DS1 (11738374_at) / Fold change /veh KIR2DL2 /// KIR2DL4 /// KIR2DL5A /// KIR2DL5B /// KIR2DS1 /// KIR2DS2 /// KIR2DS3 /// KIR2DS4 /// KIR3DL3 /// KIR3DL3 /// KIR3DS1 (11738374_at) / RFU C1QL1 (11718748_at) / Fold change /veh C1QL1 (11718748_at) / RFU TMPRSS4 (11747572_a_at) / Fold change /veh TMPRSS4 (11747572_a_at) / RFU HAMP (11756126_x_at) / Fold change /veh HAMP (11756126_x_at) / RFU RNFT2 (11725882_a_at) / Fold change /veh RNFT2 (11725882_a_at) / RFU NR4A2 (11747474_a_at) / Fold change /veh NR4A2 (11747474_a_at) / RFU ABCC12 (11746883_a_at) / Fold change /veh ABCC12 (11746883_a_at) / RFU TMEM136 (11760407_x_at) / Fold change /veh TMEM136 (11760407_x_at) / RFU CLDN22 /// WWC2 (11732394_at) / Fold change /veh CLDN22 /// WWC2 (11732394_at) / RFU HLA-DPB1 (11760878_x_at) / Fold change /veh HLA-DPB1 (11760878_x_at) / RFU SPINT1 (11716480_a_at) / Fold change /veh SPINT1 (11716480_a_at) / RFU GAP43 (11754022_s_at) / Fold change /veh GAP43 (11754022_s_at) / RFU A4GNT (11735810_at) / Fold change /veh A4GNT (11735810_at) / RFU PRB3 (11715151_x_at) / Fold change /veh PRB3 (11715151_x_at) / RFU TUBB4B (11761932_at) / Fold change /veh TUBB4B (11761932_at) / RFU CAPN14 (11732068_a_at) / Fold change /veh CAPN14 (11732068_a_at) / RFU TMCC2 (11721928_a_at) / Fold change /veh TMCC2 (11721928_a_at) / RFU IRGQ (11745062_a_at) / Fold change /veh IRGQ (11745062_a_at) / RFU FAM174B (11720279_a_at) / Fold change /veh FAM174B (11720279_a_at) / RFU TMPRSS4 (11748680_a_at) / Fold change /veh TMPRSS4 (11748680_a_at) / RFU FAM212B (11763350_a_at) / Fold change /veh FAM212B (11763350_a_at) / RFU PLEKHG5 (11743358_a_at) / Fold change /veh PLEKHG5 (11743358_a_at) / RFU ZSCAN30 (11745921_a_at) / Fold change /veh ZSCAN30 (11745921_a_at) / RFU CMKLR1 (11741424_a_at) / Fold change /veh CMKLR1 (11741424_a_at) / RFU LOC101060620 /// MAPK8IP1 (11723275_at) / Fold change /veh LOC101060620 /// MAPK8IP1 (11723275_at) / RFU SPTSSB (11747773_x_at) / Fold change /veh SPTSSB (11747773_x_at) / RFU PRSS12 (11739890_at) / Fold change /veh PRSS12 (11739890_at) / RFU BIN1 (11741810_x_at) / Fold change /veh BIN1 (11741810_x_at) / RFU WNT11 (11732464_a_at) / Fold change /veh WNT11 (11732464_a_at) / RFU C10orf10 (11716521_a_at) / Fold change /veh C10orf10 (11716521_a_at) / RFU C5orf56 (11738089_at) / Fold change /veh C5orf56 (11738089_at) / RFU CYB561 (11721691_x_at) / Fold change /veh CYB561 (11721691_x_at) / RFU ANKRD19P (11752326_a_at) / Fold change /veh ANKRD19P (11752326_a_at) / RFU OR2T12 /// OR2T33 /// OR2T8 (11738714_s_at) / Fold change /veh OR2T12 /// OR2T33 /// OR2T8 (11738714_s_at) / RFU VCAN (11748164_a_at) / Fold change /veh VCAN (11748164_a_at) / RFU JSRP1 (11732532_at) / Fold change /veh JSRP1 (11732532_at) / RFU KRTAP10-11 (11738290_x_at) / Fold change /veh KRTAP10-11 (11738290_x_at) / RFU MYO3A (11730013_a_at) / Fold change /veh MYO3A (11730013_a_at) / RFU EBF3 (11725865_a_at) / Fold change /veh EBF3 (11725865_a_at) / RFU CAMK2N1 (11719241_x_at) / Fold change /veh CAMK2N1 (11719241_x_at) / RFU C5orf56 (11738088_a_at) / Fold change /veh C5orf56 (11738088_a_at) / RFU OLFML3 (11715873_a_at) / Fold change /veh OLFML3 (11715873_a_at) / RFU LOC100653217 /// NTM (11731650_a_at) / Fold change /veh LOC100653217 /// NTM (11731650_a_at) / RFU MAPK11 (11762145_a_at) / Fold change /veh MAPK11 (11762145_a_at) / RFU FIZ1 (11724087_x_at) / Fold change /veh FIZ1 (11724087_x_at) / RFU OASL (11726364_x_at) / Fold change /veh OASL (11726364_x_at) / RFU SOX15 (11748057_x_at) / Fold change /veh SOX15 (11748057_x_at) / RFU CD79A (11719716_a_at) / Fold change /veh CD79A (11719716_a_at) / RFU HIST1H1D (11736915_at) / Fold change /veh HIST1H1D (11736915_at) / RFU CASKIN2 (11723855_a_at) / Fold change /veh CASKIN2 (11723855_a_at) / RFU LOC730098 (11760151_x_at) / Fold change /veh LOC730098 (11760151_x_at) / RFU OR4N2 (11742367_at) / Fold change /veh OR4N2 (11742367_at) / RFU PRRT2 (11749266_a_at) / Fold change /veh PRRT2 (11749266_a_at) / RFU SNX32 (11753110_a_at) / Fold change /veh SNX32 (11753110_a_at) / RFU CDHR5 (11726645_a_at) / Fold change /veh CDHR5 (11726645_a_at) / RFU RCAN1 (11760418_a_at) / Fold change /veh RCAN1 (11760418_a_at) / RFU FAM167A (11723789_a_at) / Fold change /veh FAM167A (11723789_a_at) / RFU FAM26E (11764081_at) / Fold change /veh FAM26E (11764081_at) / RFU ISYNA1 (11749810_s_at) / Fold change /veh ISYNA1 (11749810_s_at) / RFU ACY1 (11761880_at) / Fold change /veh ACY1 (11761880_at) / RFU 11764098_at / Fold change /veh 11764098_at / RFU SAMD14 (11745864_x_at) / Fold change /veh SAMD14 (11745864_x_at) / RFU NPB (11741838_a_at) / Fold change /veh NPB (11741838_a_at) / RFU TMPRSS6 (11731388_a_at) / Fold change /veh TMPRSS6 (11731388_a_at) / RFU KRTAP10-2 (11738614_at) / Fold change /veh KRTAP10-2 (11738614_at) / RFU ARHGAP8 /// PRR5-ARHGAP8 (11727945_x_at) / Fold change /veh ARHGAP8 /// PRR5-ARHGAP8 (11727945_x_at) / RFU KRTAP5-7 /// NADSYN1 (11734609_at) / Fold change /veh KRTAP5-7 /// NADSYN1 (11734609_at) / RFU RASL12 (11751679_a_at) / Fold change /veh RASL12 (11751679_a_at) / RFU CDKN2B (11736163_a_at) / Fold change /veh CDKN2B (11736163_a_at) / RFU PRF1 (11729649_at) / Fold change /veh PRF1 (11729649_at) / RFU, ZNF638 /// ZNF638-IT1 / Fold change vs veh, ZNF638 /// ZNF638-IT1 / RFU, PANK3 / Fold change vs veh, PANK3 / RFU, SH3YL1 / Fold change vs veh, SH3YL1 / RFU, ZEB2 / Fold change vs veh, ZEB2 / RFU, NRIP1 / Fold change vs veh, NRIP1 / RFU, PTTG1IP / Fold change vs veh, PTTG1IP / RFU, CAPN2 / Fold change vs veh, CAPN2 / RFU, MED14 / Fold change vs veh, MED14 / RFU, SNORA58 / Fold change vs veh, SNORA58 / RFU, C1orf63 / Fold change vs veh, C1orf63 / RFU, LRRFIP1 / Fold change vs veh, LRRFIP1 / RFU, NDUFAF7 / Fold change vs veh, NDUFAF7 / RFU, SLC12A2 / Fold change vs veh, SLC12A2 / RFU, IBTK / Fold change vs veh, IBTK / RFU, ESF1 / Fold change vs veh, ESF1 / Fold change vs veh, TMEM50B / RFU, TAOK1 / Fold change vs veh, TAOK1 / RFU, ACBD3 / Fold change vs veh, ACBD3 / RFU, TMA16 / Fold change vs veh, TMA16 / RFU, RWDD3 / Fold change vs veh, RWDD3 / RFU, BCAT1 / Fold change vs veh, BCAT1 / RFU, EDEM3 / Fold change vs veh, EDEM3 / RFU, TMEM33 / Fold change vs veh, TMEM33 / RFU, WDR75 / Fold change vs veh, WDR75 / RFU, AHCTF1 / Fold change vs veh, AHCTF1 / RFU, TFRC / Fold change vs veh, TFRC / RFU, ZDHHC17 / Fold change vs veh, ZDHHC17 / RFU, NOM1 / Fold change vs veh, NOM1 / RFU, ARL8B / Fold change vs veh, ARL8B / RFU, ZBTB11 / Fold change vs veh, ZBTB11 / RFU, TAMM41 / Fold change vs veh, TAMM41 / RFU, KIAA1704 /// LOC100996395 / Fold change vs veh, KIAA1704 /// LOC100996395 / RFU, ING1 / Fold change vs veh, ING1 / RFU, TRMT61B / Fold change vs veh, TRMT61B / RFU, FUBP3 / Fold change vs veh, FUBP3 / RFU, TP53 / Fold change vs veh, TP53 / RFU, TNKS2 / Fold change vs veh, TNKS2 / RFU, ZFP14 / Fold change vs veh, ZFP14 / RFU, ACTR2 / Fold change vs veh, ACTR2 / RFU, PPP3R1 / Fold change vs veh, PPP3R1 / RFU, PIK3R1 / Fold change vs veh, PIK3R1 / RFU, HNRNPA1 / Fold change vs veh, HNRNPA1 / RFU, RNF170 / Fold change vs veh, RNF170 / RFU, ZNF28 / Fold change vs veh, ZNF28 / RFU, RNGTT / Fold change vs veh, RNGTT / RFU, OGT / Fold change vs veh, OGT / RFU, BRD1 / Fold change vs veh, BRD1 / RFU, MARS / Fold change vs veh, MARS / RFU, ZNF655 / Fold change vs veh, ZNF655 / RFU, FAHD1 / Fold change vs veh, FAHD1 / RFU, BDP1 / Fold change vs veh, BDP1 / RFU, LRRCC1 / Fold change vs veh, LRRCC1 / RFU, ARID1A / Fold change vs veh, ARID1A / RFU, ZNF146 / Fold change vs veh, ZNF146 / RFU, ZNF330 / Fold change vs veh, ZNF330 / RFU, GPN3 / Fold change vs veh, GPN3 / RFU, C9orf123 / Fold change vs veh, C9orf123 / RFU, N4BP2L2 / Fold change vs veh, N4BP2L2 / RFU, ARFIP1 / Fold change vs veh, ARFIP1 / RFU, FAM179B / Fold change vs veh, FAM179B / RFU, BCL10 / Fold change vs veh, BCL10 / RFU, UHRF1BP1L / Fold change vs veh, UHRF1BP1L / RFU, BET1 / Fold change vs veh, BET1 / RFU, CNOT2 / Fold change vs veh, CNOT2 / RFU, ZNF268 / Fold change vs veh, ZNF268 / Fold change vs veh, ZNF507 / RFU, DGCR2 / Fold change vs veh, DGCR2 / RFU, WDSUB1 / Fold change vs veh, WDSUB1 / Fold change vs veh, HSP90B1 /// MIR3652 / RFU, ADSS / Fold change vs veh, ADSS / RFU, GK / Fold change vs veh, GK / RFU, ZNF148 / Fold change vs veh, ZNF148 / RFU, TAF9 / Fold change vs veh, TAF9 / RFU, SLC1A5 / Fold change vs veh, SLC1A5 / RFU, SLMO2 / Fold change vs veh, SLMO2 / RFU, ABCC4 / Fold change vs veh, ABCC4 / RFU, LOC101060439 /// RAP1B / Fold change vs veh, LOC101060439 /// RAP1B / RFU, RFX7 / Fold change vs veh, RFX7 / RFU, GTPBP10 / Fold change vs veh, GTPBP10 / RFU, CNEP1R1 / Fold change vs veh, CNEP1R1 / RFU, BIVM-ERCC5 /// ERCC5 / Fold change vs veh, BIVM-ERCC5 /// ERCC5 / RFU, ILF3 / Fold change vs veh, ILF3 / RFU 11762660_at / Fold change /veh 11762660_at / RFU VCAN (11757783_s_at) / Fold change /veh VCAN (11757783_s_at) / RFU DDX43 (11728927_at) / Fold change /veh DDX43 (11728927_at) / RFU KRT8 (11758188_x_at) / Fold change /veh KRT8 (11758188_x_at) / RFU NKD1 (11759106_at) / Fold change /veh NKD1 (11759106_at) / RFU SRD5A1 (11742802_a_at) / Fold change /veh SRD5A1 (11742802_a_at) / RFU TPSAB1 /// TPSB2 (11721975_s_at) / Fold change /veh TPSAB1 /// TPSB2 (11721975_s_at) / RFU GSTM3 (11746129_a_at) / Fold change /veh GSTM3 (11746129_a_at) / RFU IL23R (11737362_x_at) / Fold change /veh IL23R (11737362_x_at) / RFU TMEM51 (11727254_a_at) / Fold change /veh TMEM51 (11727254_a_at) / RFU PIWIL2 (11732686_x_at) / Fold change /veh PIWIL2 (11732686_x_at) / RFU ORM1 (11744905_x_at) / Fold change /veh ORM1 (11744905_x_at) / RFU CCDC152 (11743942_at) / Fold change /veh CCDC152 (11743942_at) / RFU ECM1 (11717891_a_at) / Fold change /veh ECM1 (11717891_a_at) / RFU IL23R (11748794_a_at) / Fold change /veh IL23R (11748794_a_at) / RFU TNFAIP8L3 (11732012_x_at) / Fold change /veh TNFAIP8L3 (11732012_x_at) / RFU MBOAT4 (11741988_at) / Fold change /veh MBOAT4 (11741988_at) / RFU 11764193_at / Fold change /veh 11764193_at / RFU TMEM53 (11763286_at) / Fold change /veh TMEM53 (11763286_at) / RFU MAGEB2 (11727129_at) / Fold change /veh MAGEB2 (11727129_at) / RFU TMEM200A (11744735_a_at) / Fold change /veh TMEM200A (11744735_a_at) / RFU CCDC152 (11751479_a_at) / Fold change /veh CCDC152 (11751479_a_at) / RFU FAM211A (11726209_a_at) / Fold change /veh FAM211A (11726209_a_at) / RFU RGS16 (11746705_a_at) / Fold change /veh RGS16 (11746705_a_at) / RFU VCAN (11755009_s_at) / Fold change /veh VCAN (11755009_s_at) / RFU RHOB (11743442_s_at) / Fold change /veh RHOB (11743442_s_at) / RFU RGS16 (11720943_a_at) / Fold change /veh RGS16 (11720943_a_at) / RFU RGS16 (11720944_at) / Fold change /veh RGS16 (11720944_at) / RFU, VPS4B / Fold change vs veh, VPS4B / RFU, CREB1 / Fold change vs veh, CREB1 / RFU, DNAJC13 / Fold change vs veh, DNAJC13 / RFU, GNAQ / Fold change vs veh, GNAQ / RFU, CDK5R1 / Fold change vs veh, CDK5R1 / RFU, ZRANB3 / Fold change vs veh, ZRANB3 / RFU, CUL4A / Fold change vs veh, CUL4A / RFU, CCNY / Fold change vs veh, CCNY / RFU, UFL1 / Fold change vs veh, UFL1 / RFU, COG3 / Fold change vs veh, COG3 / RFU, DIAPH2 / Fold change vs veh, DIAPH2 / RFU, SKA2 / Fold change vs veh, SKA2 / RFU, AFF3 / Fold change vs veh, AFF3 / RFU, LMF1 / Fold change vs veh, LMF1 / RFU, IPO11 / Fold change vs veh, IPO11 / RFU, DFFB / Fold change vs veh, DFFB / RFU, FOXP1 / Fold change vs veh, FOXP1 / RFU, CARD8 / Fold change vs veh, CARD8 / RFU, STRN3 / Fold change vs veh, STRN3 / RFU, ADK / Fold change vs veh, ADK / RFU, RASSF2 / Fold change vs veh, RASSF2 / RFU, WIPF1 / Fold change vs veh, WIPF1 / RFU, LARP1B / Fold change vs veh, LARP1B / RFU, RASA1 / Fold change vs veh, RASA1 / RFU, RB1 / Fold change vs veh, RB1 / RFU, PPFIA1 / Fold change vs veh, PPFIA1 / RFU, MAT2A / Fold change vs veh, MAT2A / RFU, CCT5 / Fold change vs veh, CCT5 / RFU, WDR92 / Fold change vs veh, WDR92 / RFU, CUX1 / Fold change vs veh, CUX1 / RFU, TTC7A / Fold change vs veh, TTC7A / RFU, TMEM135 / Fold change vs veh, TMEM135 / RFU, DEPTOR / Fold change vs veh, DEPTOR / RFU, CPM / Fold change vs veh, CPM / RFU, DNAJB6 / Fold change vs veh, DNAJB6 / RFU, CACNA2D3 / Fold change vs veh, CACNA2D3 / RFU, DTX4 / Fold change vs veh, DTX4 / RFU, TFCP2 / Fold change vs veh, TFCP2 / RFU, GMCL1 /// GMCL1P1 / Fold change vs veh, GMCL1 /// GMCL1P1 / RFU, AEBP2 / Fold change vs veh, AEBP2 / RFU, SNHG1 /// SNORD22 /// SNORD25 /// SNORD26 /// SNORD27 /// SNORD28 /// SNORD29 /// SNORD31 / Fold change vs veh, SNHG1 /// SNORD22 /// SNORD25 /// SNORD26 /// SNORD27 /// SNORD28 /// SNORD29 /// SNORD31 / Fold change (Aza/veh), C12orf56 (ProbeSet 11735607_a_at) / Fold change (ACY-1035/veh), C12orf56 (ProbeSet 11735607_a_at) / Fold change (Aza/veh), FGFR1OP (ProbeSet 11751329_s_at) / Fold change (ACY-1035/veh), FGFR1OP (ProbeSet 11751329_s_at) / Fold change (Aza/veh), VPS36 (ProbeSet 11739960_a_at) / Fold change (ACY-1035/veh), VPS36 (ProbeSet 11739960_a_at) / RFU SYPL1 (11715823_x_at) / Fold change /veh SYPL1 (11715823_x_at) / RFU IGFBP7 (11715501_s_at) / Fold change /veh IGFBP7 (11715501_s_at) / RFU REEP3 (11722064_at) / Fold change /veh REEP3 (11722064_at) / RFU IGLL1 (11728026_x_at) / Fold change /veh IGLL1 (11728026_x_at): dose or concentration left out as unconfirmed
Settings: MV-4-11 cells, 48 hours

Nc1ccc(-c2cccs2)cc1NC(=O)c1ccc2c(c1)cc(C1CC1)n2CCN1CCOCC1 [ACY-1035]
RFU RASL12 (11751679_a_at): 18.80 RFU
